Test results reported in publication PMC6348444, “New Water-Soluble Copper(II) Complexes with Morpholine–Thiosemicarbazone Hybrids: Insights into the Anticancer and Antibacterial Mode of Action” (Journal of Medicinal Chemistry, 2018).

What was measured:
A2780cisR cells = test: MTT cytotoxicity assay, A2780cisR; assay type: cell-based, human; conditions: for RF (resistance factor): IC50(A2780cisR)/IC50(A2780); for IC50: MTT assay, 72 h exposure, cisplatin-resistant A2780cisR, read-out: IC50 A2780cis
A2780 cells = test: Cellular accumulation of Cu by ICP-MS; assay type: cell-based, human; conditions: 24 h exposure, 1 μM
From the text: The ability of anticancer drugs to penetrate biological membranes, tissues, and barriers underlies their biological, pharmacokinetic, and metabolic properties. These properties can be predicted by calculating physicochemical characteristics of drug candidates using molecular descriptors.[30] […] The results are shown in Table S7 in the Supporting Information. On the basis of the calculated physicochemical parameters, we determined if novel compounds belonged to the drug-like chemical space, which is commonly defined by the well-known Lipinski rule, or to the known drug space (KDS), which includes all small compounds in medical use.[31] […] Following the calculations, we determined the lipophilicity of all compounds experimentally (log D7.4, Tables 1 and 2). It is known that cancer cells accumulate hydrophilic compounds to a smaller extent relative to hydrophobic compounds, thereby affecting their activity. […] As expected, proligands were more lipophilic than the corresponding Cu(II) species, which are positively charged at physiological pH (Figure 3b). […] The lipophilicity of 2–5 increased in the following order 4 < 2 < 3 < 5, and correlated well with their cytotoxicity in cancer cells, with the exception of 3. Subsequently, we determined the total cellular accumulation of Cu in A2780 cells by ICP–MS upon 24 h exposure to 1–6 in comparison with CuCl2 (Table 2). […] The accumulation increased in the order 6 < 1 < 3 < 4 < 2 < 5.
Cellular accumulation of 1–6 was determined in A2780 cells. Cells were seeded into Cellstar 6-well plates (Greiner Bio-one) at a density of 60 × 10^4 cells/well (2 mL per well). After the cells were allowed to resume exponential growth for 24 h, they were exposed to 1–6 at 1 μM for 24 h at 37 °C. The cells were washed twice with 1 mL of PBS and lysed with RIPA lysis buffer for 5–10 min at 4 °C. The cell lysates were scraped from the wells and transferred to separate 1.5 mL microtubes. The supernatant was then collected after centrifugation (13 000 rpm, 4 °C for 15 min) and total protein content of each sample was quantified via Bradford’s assay. Cell lysates were transferred to 2 mL glass vials and then digested with ultrapure 65% HNO3 at 100 °C for 24 h. The resulting solution was diluted to 1 mL (2–4% v/v HNO3) with ultrapure Milli-Q water. Cu content of each sample was quantified by ICP–MS. In was used as an internal standard. Cu and In were measured at m/z 64 and m/z 115, respectively. Metal standards for calibration curve (0, 0.5, 1, 2, 5, 10, 20, and 40 ppb) were freshly prepared before each measurement. All readings were made in triplicates in He mode. For temperature-dependent cellular accumulation experiments, A2780 cells were seeded into 35 n 10 mm tissue culture plates at a density of 60 0 10^4 cells/plate. After the cells were allowed to resume exponential growth for 24 h, they were exposed to 2 at 3 μM for 10, 30, 60, and 120 min at 37 and 4 °C. The subsequent analysis was performed as described above. For energy-dependent experiments, A2780 cells were seeded into 35 5 10 mm tissue culture plates at a density of 1 0 10^6 cells/plate. After the cells were allowed to resume exponential growth for 24 h, they were preincubated with oligomycin (5 μM) for 1 or 4 h or with cycloheximide (100 μM) for 4 h and further co-incubated with 3 μM of 2 at 37 °C. To induce total starvation, after the cells were allowed to resume exponential growth for 24 h, RPMI media was replaced with HBSS, and cells were preincubated in HBSS for 1 h and further incubated with 3 μM of 2 for 1 h at 37 °C. The subsequent analysis was performed as described above.

[1] = system: Staphylococcus aureus CECT 86 (ATCC 12600); test: MIC microdilution, S. aureus; assay type: cell-based; conditions: planktonic cells; for S. aureus MIC50: growth inhibited at 50%; for S. aureus MIC100: lowest concentration completely inhibiting growth
Protocol: Wild-type P. aeruginosa PAO1 strain CECT 4122 (ATCC 15692) and S. aureus CECT 86 (ATCC 12600) were obtained from the Spanish Type Culture Collection (CECT). All strains were routinely cultivated in TSB medium (Sharlab, Spain) at 37 °C. MIC assays were determined by the microdilution method using TSB broth following the method described by the Clinical and Laboratory standards Institute.[94] In brief, compounds were diluted in a 96-well microtiter plate (tissue culture-treated polystyrene; […]

Solubility in water = assay type: physicochemical; conditions: sterile water stock solutions
Protocol: Human ovarian carcinoma cells A2780 and A2780cisR and human embryonic kidney HEK293 were obtained from ATCC. A2780 and A2780cisR cells were cultured in RPMI 1640 medium containing 10% FBS. HEK293 were cultured in DMEM medium containing 10% FBS. All cells were grown in tissue culture 25 cm^2 flasks (BD Biosciences, Singapore) at 37 °C in a humidified atmosphere of 95% air and 5% CO2. All drug stock solutions were prepared in sterile water. The amount of Cu was determined by ICP–OES.

[2] = Cyclic voltammetry, redox potentials; assay type: physicochemical; conditions: first reduction step
Protocol: To assess the redox properties of 1-6, detailed electrochemical and spectroscopic studies in various solvents were performed using cyclic voltammetry as well as EPR-spectroelectrochemistry. Additionally, the UV-vis spectra of 1-5 were measured (Figure S8). […] The second reduction step occurred at -1.8 V versus Fc^+/Fc (-1.16 V vs NHE) and was less reversible, indicating a ligand-based reduction. […] In aqueous solutions, the reduction potentials shifted to the less negative values, and reduction was less reversible as shown for 2 in Figure S10. […] Cyclic voltammetric experiments were performed as described previously.[46] The cyclic voltammograms were measured in the cathodic region in different solvents (DMSO, methanol, DMSO/H2O). The analytical purity grade LiClO4 (Sigma-Aldrich) and distilled and deionized water were used for preparation of 1 mM aqueous solutions of the investigated complexes 1-6. EPR spectra were recorded with the EMX plus. In situ UV-vis-NIR spectroelectrochemical measurements were performed on a spectrometer (Avantes, Model AvaSpec-2048x14-USB2 in the spectroelectrochemical cell kit ([…]3)) with the Pt-microstructured honeycomb working electrode, purchased from Pine Research Instrumentation. The cell was positioned in the CUV-UV Cuvette Holder (Ocean Optics) connected to the diode-array UV-vis-NIR spectrometer by optical fibers. UV-vis-NIR spectra were processed using the AvaSoft 7.7 software package. Halogen and deuterium lamps were used as light sources (Avantes, Model AvaLight-DH-S-BAL). The in situ EPR spectroelectrochemical experiments were carried out under an argon atmosphere in the EPR flat cell equipped with a large platinum mesh working electrode. The freshly prepared solutions were carefully purged with argon and the electrolytic cell was polarized in the galvanostatic mode directly in the cylindrical EPR cavity TM-110 (ER 4103 TM), and the EPR spectra were measured in situ.

| Compound | RF (resistance factor) (A2780cisR cells) | IC50 (A2780cisR cells) [nM] | cellular accumulation A2780 (A2780 cells) [nmol Cu/mg protein] | S. aureus MIC50 [1] [µg/mL] | S. aureus MIC100 [1] [µg/mL] | solubility in water (Solubility in water) [µM] | E1/2 Red1 (DMSO) vs Fc+/Fc ([2]; vs Fc+/Fc) | E1/2 Red1 (DMSO) vs NHE ([2]; vs NHE (in brackets)) | E1/2 Red1 (MeOH) vs Fc+/Fc ([2]; vs Fc+/Fc) | E1/2 Red1 (MeOH) vs NHE ([2]; vs NHE (in brackets)) | E1/2 Red1 (H2O) vs Fc+/Fc ([2]; H2O, vs Fc+/Fc) | E1/2 Red1 (H2O) vs NHE ([2]; H2O, vs NHE (in brackets)) |
| --- | --- | --- | --- | --- | --- | --- | --- | --- | --- | --- | --- | --- |
| [Cl][Cu][S]C(=NN=Cc1ccc(CN2CCOCC2)cn1)Nc1ccccc1 [complex 5, [Cu(L^5)Cl]] | 1.9 | 17 ± 2 | 4.1 ± 0.9 | 3 | 10 | ≤ 2000 | –0.77 V | –0.13 V | –0.48 V | +0.16 V |  |  |
| CN(C)C(=NN=Cc1ccc(CN2CCOCC2)cn1)[S][Cu][Cl] [complex 2, [Cu(L^2)Cl]] | 2.5 | 30 ± 3 | 3.9 ± 0.6 | 2 | 10 | ≤ 2000 | –0.80 V | –0.16 V | –0.54 V | +0.10 V | –0.52 V | +0.12 V |
